From patent US12162892B2, “CD16a binding agents and uses thereof” (KLEO PHARMACEUTICALS, INC., priority 2018, dated 2024)
“And” between values parts separate entries of the source, which are not always exact repeats. Identical values can stand only once.

Experiments:
CD16a158V [1] = target: T1, CD16a158V (Homo sapiens, UniProt P08637, F176V); assay: Biotinylated Ligand ELISA Assay; assay type: binding; details: Biotinylated CD16a protein at 10 nM
Description: (§1) Coat ELISA plates (Costar 3922) using Neutravidin (Thermo 31000) at 5 μg/ml (100 μl/well) for 1 hour at 37° C. Plates were washed 4 times with PBST (PBS, 0.05% Tween 20-200 μl, 1 minute/wash) then blocked using 200 μl 5% bovine serum albumin (BSA, Heat Shock, Fraction V-American Bio AB01088-00100) in PBST for 2 hours at 25° C. with moderate shaking. BSA was removed and plates were washed. Biotinylated ligands diluted in PBSTB (PBST+0.1% BSA) were then added (100 μl/well) and incubated for 1 hour at 25° C. with gentle shaking. Ligands were removed and plates were washed. Any remaining unoccupied neutravidin binding sites were blocked by adding 100 μM Biotin (Fisher BP232-1) (100 μl/well) and incubated for 1 hour at 25° C. with gentle shaking. Plates were then washed. […] Protein was removed and plates were washed. Streptavidin-HRP (Invitrogen 434323) diluted 1:5000 in PBSTB was added (100 μl/well) and incubated for 1 hour at 25° C. with gentle shaking. Wash plates. Substrate (Super Signal ELISA Pico Chemiluminescent Substrate-Thermo 37069) was added (100 μl/well) and plates were incubated for 5 minutes at 25° C. with gentle shaking. Luminescence was then measured on the Biotek Synergy H1 microplate reader.

primary monocytes = assay: ADCP assay using fresh primary monocytes; assay type: cell-based, human; details: beads loaded with test compound at 50 uM; 37C for 18 hrs
Description: (§2) Biotinylated fluorescent beads (Invitrogen, cat #P35372) were thoroughly mixed by vortexing for 1 min. Ten microliters of supplied bead suspension per treatment type were dispensed in Eppendorf tubes, and washed with 1 ml PBS […], then re-suspended in 500 uL of 1% BSA in PBS. Test compounds were added to bead suspensions to a final concentration of 50 uM, and biotinylated human IgG whole molecule (Rockland 009-0602) final concentration of 20 ug/mL.
(§3) Tubes were incubated at room temperature for 1 hr on a rocking platform.
(§4) Following incubation, beads were pelleted in a microcentrifuge at 12,000 g for 5 minutes at room temperature. Supernatants were carefully aspirated and beads were washed 5 times by resuspending in 1 ml of PBS 1% BSA, and centrifuging as described above. Finally, beads were resuspended in 500 ul of PBS 1% BSA and used in ADCP assay.
PBMC, freshly isolated from whole blood (Bioreclamation IVT0) using Ficoll-Paque density centrifugation were resuspended in serum-free, supplemented RPMI at 2×10^6 cells/mL.
Ten milliliters of the resulting cell suspension was seeded into 75-cm^2 tissue culture flask (Denville Scientific TC9341) and incubated 2-3 hr at 37° C. 5% CO2 to allow cell adhesion. Following incubation, media was decanted and surface of the flask was carefully washed twice, each time with 10 ml serum-free, supplemented RPMI to remove any residual non-adherent cells. To remove adherent cells, 10 mL of ice-cold 2.5 mM EDTA/PBS solution was added for 10 min on ice. Cells were transferred to a 15-ml conical tube and centrifuge 10 min at 300×g, room temperature, to remove the EDTA/PBS solution. Monocytes were then resuspended in RPMI 10% FCS at 5×10^5 cells/mL to be used in ADCP assay. Monocyte purity was assessed by staining cells with antibodies to human CD3 FITC (Biolegend 300306), CD19 PeCy7 (Biolegend 302216), CD14 BV421 (BD Biosciences, 565283), and CD16 (Biolegend 302046).
(§5) Monocytes or THP-1 cells (TIB-202 ATCC) were seeded into 96 well round bottom 96 well plates at the density of 10^5 cells per well in 200 ul, and 10 uL of fluorescent bead suspension prepared as described above was added to each well. Well contents were mixed by pipetting up and down using a multichannel pipet, and plates were incubated at 37C for 18 hrs. After incubation, well contents were transferred into flat bottom black 96 well plates (Costar #3358) and centrifuged for 2 minutes at 300 g to allow for better visualization of the cells. Images were taken using Zoe fluorescent cell imager (Biorad).

[2] = tested on: CD16a negative THP1 cells; assay: ADCP assay using THP-1 cells; assay type: cell-based; details: beads loaded with test compound at 50 uM; 37C for 18 hrs
Description: as §2, §3, §4, §5

CD16a158F [3] = target: T2, CD16a158F (Homo sapiens, UniProt P08637); assay: Biotin ELISA, interaction with various receptors (Example 55); assay type: binding; details: three replicate values per compound
T2 sequence (P08637 17-208 limits assumed): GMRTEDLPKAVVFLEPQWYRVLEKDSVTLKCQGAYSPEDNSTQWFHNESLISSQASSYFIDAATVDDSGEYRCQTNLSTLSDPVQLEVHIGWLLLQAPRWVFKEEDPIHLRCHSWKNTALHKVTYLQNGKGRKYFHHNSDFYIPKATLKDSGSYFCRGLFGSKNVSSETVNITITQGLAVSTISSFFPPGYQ
Description: as §1
(§6) Using similar methods as Examples 47 or 53, interactions with a number of receptors were measured. In some embodiments, “stock” is antibody only, and “control” is an antibody that went through the same procedure except using DMSO only as opposed to a compound. When contacted with targeting moieties such as antibodies in the Examples, compounds, e.g., I-95, I-96, etc. can react through their reactive groups

CD16a158V [4] = target: T1, CD16a158V; assay: as above; assay type: binding; details: three replicate values per compound
Description: as §1, §6

CD32a H167 = target: T3, CD32a H167 (Homo sapiens, UniProt P12318); assay: as above; assay type: binding; details: three replicate values per compound
T3 sequence (P12318 36-218 limits assumed): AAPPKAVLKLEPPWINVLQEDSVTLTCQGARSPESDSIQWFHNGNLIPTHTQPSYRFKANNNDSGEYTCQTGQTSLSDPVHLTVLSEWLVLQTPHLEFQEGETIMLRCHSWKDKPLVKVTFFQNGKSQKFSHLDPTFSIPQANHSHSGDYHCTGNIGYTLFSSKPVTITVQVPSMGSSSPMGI
Description: as §1, §6

CD32a-R167 = assay: as above; assay type: binding; details: three replicate values per compound
Description: as §1, §6

CD32b = target: T4, CD32b (Homo sapiens, UniProt P31994); assay: as above; assay type: binding; details: three replicate values per compound
T4 sequence (P31994 43-310): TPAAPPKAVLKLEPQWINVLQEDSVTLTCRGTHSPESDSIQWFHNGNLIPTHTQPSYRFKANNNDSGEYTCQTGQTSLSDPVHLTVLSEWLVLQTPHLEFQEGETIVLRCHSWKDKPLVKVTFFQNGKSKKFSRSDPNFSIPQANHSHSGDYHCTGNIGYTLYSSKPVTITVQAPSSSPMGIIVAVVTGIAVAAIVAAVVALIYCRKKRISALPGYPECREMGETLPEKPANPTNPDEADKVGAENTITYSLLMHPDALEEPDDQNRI
Description: as §1, §6

CD3ed = CD3ed (Homo sapiens, UniProt P04234+P07766); assay: as above; assay type: binding; details: three replicate values per compound
Chain of CD3ed (P07766 23-126 limits assumed): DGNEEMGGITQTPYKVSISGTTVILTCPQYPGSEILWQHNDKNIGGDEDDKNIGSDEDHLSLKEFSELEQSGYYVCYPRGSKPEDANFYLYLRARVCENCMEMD
Chain of CD3ed (P04234 22-105 limits assumed): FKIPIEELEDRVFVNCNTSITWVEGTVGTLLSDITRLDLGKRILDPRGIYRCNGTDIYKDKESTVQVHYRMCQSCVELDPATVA
Description: as §1, §6

CD64 = CD64 (Homo sapiens, UniProt P12314); assay: as above; assay type: binding; details: three replicate values per compound
Chain of CD64 (P12314 16-374): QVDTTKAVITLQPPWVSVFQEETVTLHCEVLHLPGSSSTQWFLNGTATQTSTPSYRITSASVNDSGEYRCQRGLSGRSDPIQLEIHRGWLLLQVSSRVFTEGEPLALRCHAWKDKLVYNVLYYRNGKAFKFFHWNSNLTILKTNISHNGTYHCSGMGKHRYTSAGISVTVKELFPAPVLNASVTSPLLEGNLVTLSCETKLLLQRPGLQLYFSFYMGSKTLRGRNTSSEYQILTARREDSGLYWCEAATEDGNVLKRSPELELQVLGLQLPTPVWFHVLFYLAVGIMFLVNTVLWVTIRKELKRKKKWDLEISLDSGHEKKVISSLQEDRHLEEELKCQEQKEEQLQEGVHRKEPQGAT
Description: as §1, §6

[5] = Biotin ELISA, No Protein (Example 55); assay type: binding; details: three replicate values per compound
Description: as §1, §6

CD16a158F [6] = target: T2, CD16a158F; assay: Biotinylated Ligand ELISA Assay; assay type: binding; set-up: purchased Acro Biosystems CDA-H82E8; details: Biotinylated CD16a protein at 10 nM
Description: as §1

CD16a158V [7] = target: T1, CD16a158V; assay: Microscale Thermophoresis; assay type: binding; details: read-out: MST-CD16a158V KD
Description: Target proteins (poly-histidine tagged, 600 nM) were fluorescently labeled combination with an equal volume of dye (200 nM, His-Tag labeling kit RED-tris-NTA NanoTemper: MO-L008) PBST. The mixture rotated in the dark for 45 min before being spun down at 12000 rpm for 15 min to remove uncomplexed material. The fluorescence of the removed supernatant was adjusted to for a test concentration of 40-80 nM (2× the final measured). Test ligands were prepared across a 12-point dilution series in a 96-well PCR plate at a volume of 20 uL at 2× the concentration desired for testing (0.2% BSA in PBST). The dilution series was then combined with an equal volume of the labeled target at 2× the concentration desired for testing. Capillaries were added to the wells of the combined target/ligand complex and measured by MST. Measurements were taken using a Nanotemper Monolith NT.115, and the data was analyzed using NanoTemper MO.Control software.

T1 sequence (P08637 17-208 F176V): as the sequence (P08637 17-208 limits assumed) above, with F160V counted along it

Row | Structure (SMILES) | Biotinylated Ligand ELISA-CD16a158V Binding (RLU) (CD16a158V [1]) | ACDP (primary monocytes)-normalized phagocytosis score (primary monocytes) | ACDP (CD16a negative THP1 cells)-normalized phagocytosis score [2] | Biotin ELISA Results CD16a-158F (CD16a158F [3]) | Biotin ELISA Results CD16a-158V (CD16a158V [4]) | Biotin ELISA Results CD32a-H167 (CD32a H167) | Biotin ELISA Results CD32a-R167 (CD32a-R167) | Biotin ELISA Results CD32b (CD32b) | Biotin ELISA Results CD3ed (CD3ed) | Biotin ELISA Results CD64 (CD64) | Biotin ELISA Results No Protein [5] | Biotinylated Ligand ELISA-CD16a158F Binding (RLU) (CD16a158F [6]) | Kd (CD16a158V [7]) [nM]
1 | O=C(CCCC[C@@H]1SC[C@@H]2NC(=O)N[C@@H]21)NCCOCCOCCOCCOCCOCCOCCOCCOCCn1cc(-c2ccc(NC(=O)N3CCC4(CC3)NC(=O)N(Cc3ccccc3)C4=O)cc2)nn1 [Compound I-17, N-{4-[1-(26-{5-[(3aS,4S,6aR)-2-oxo-hexahydro-1H-thieno[3,4-d]imidazol-4-yl]pentanamido}-3,6,9,12,15,18,21,24-octaoxahexacosan-1-yl)-1H-1,2,3-triazol-4-yl]phenyl}-3-benzyl-2,4-dioxo-1,3,8-triazaspiro[4.5]decane-8-carboxamide] | D (a relative luminescence value (RLU) of 1-1,000) | C (a normalized phagocytosis score of 1.0-1.5) | B (a normalized phagocytosis score of 1.5-2.0) | 122 and 5830 and 2636 | 443 and 2316 and 1591 | 1642 and 1978 and 2246 | 11182 and 5954 and 10675 | 2439 and 955 and 1191 | 1412 and 1083 and 1250 | 44623 and 46028 and 52372 | −236 and −272 and 237 | D (a relative luminescence value (RLU) of 1-1,000) | –
2 | O=C(CCCC[C@@H]1SC[C@@H]2NC(=O)N[C@@H]21)NCCOCCOCCOCCOCCOCCOCCOCCOCCNC(=O)c1cnc(N2CCC3(CC2)NC(=O)C(Nc2ccccc2)C3=O)nc1 (some centres unmarked) [Compound I-21] | A (a relative luminescence value (RLU) of >100,000) | C (a normalized phagocytosis score of 1.0-1.5) | D (a normalized phagocytosis score of 0.5-1.0) | 6775 and 6468 and 5831 | 5747 and 5338 and 6303 | 15126 and 14461 and 15658 | 12004 and 10942 and 9796 | 14249 and 14080 and 11349 | 8285 and 6369 and 7518 | 98211 and 69008 and 131784 | 7902 and 6992 and 7029 | A (a relative luminescence value (RLU) of >100,000) | –
3 | O=C(CCCC[C@@H]1SC[C@@H]2NC(=O)N[C@@H]21)NCCOCCOCCOCCOCCOCCOCCOCCOCCn1cc(-c2ccc(NC(=O)N3CCC4(CC3)NC(=O)N(c3ccccc3)C4=O)cc2)nn1 [Compound I-18, N-{4-[1-(26-{5-[(3aS,4S,6aR)-2-oxo-hexahydro-1H-thieno[3,4-d]imidazol-4-yl]pentanamido}-3,6,9,12,15,18,21,24-octaoxahexacosan-1-yl)-1H-1,2,3-triazol-4-yl]phenyl}-2,4-dioxo-3-phenyl-1,3,8-triazaspiro[4.5]decane-8-carboxamide] | D (a relative luminescence value (RLU) of 1-1,000) | – | B (a normalized phagocytosis score of 1.5-2.0) | – | – | – | – | – | – | – | – | D (a relative luminescence value (RLU) of 1-1,000) | –
4 | COc1ccc(OC)c(N2CC(C(=O)Nc3ccc(-c4cn(CCOCCOCCOCCOCCOCCOCCOCCOCCNC(=O)CCCC[C@@H]5SC[C@@H]6NC(=O)N[C@@H]65)nn4)cc3)CC2=O)c1 (some centres unmarked) [Compound I-39] | C (a relative luminescence value (RLU) of 1,000-10,000) | B (a normalized phagocytosis score of 1.5-2.0) | B (a normalized phagocytosis score of 1.5-2.0) | – | – | – | – | – | – | – | – | C (a relative luminescence value (RLU) of 1,000-10,000) | 100 to 500
